Our source for the IC50 values is US7812016B2, “Naphthyridine integrase inhibitors” (SmithKline Beecham Corporation, priority 2003, dated 2010).

This assay relates to HIV-1 (strain IIIB). The assay is described as follows: MT4 Cell Assay (antiviral HIV activity, propidium iodide or MTS readout). It is filed as cell-based. Particulars: Human immunodeficiency virus 1, IIIB, expected range for the control and standard, tested in every assay, MT4 cells. The protocol:
Antiviral HIV activity and compound-induced cytotoxicity were measured in parallel by means of a propidium iodide based procedure in the human T-cell lymphotropic virus transformed cell line MT4. Aliquots of the test compounds were serially diluted in medium (RPMI 1640, 10% fetal calf serum (FCS), and gentamycin) in 96-well plates (Costar 3598) using a Cetus Pro/Pette. Exponentially growing MT4 cells were harvested and centrifuged at 1000 rpm for 10 min in a Jouan centrifuge (model CR 4 12). Cell pellets were resuspended in fresh medium (RPMI 1640, 20% FCS, 20% IL-2, and gentamycin) to a density of 5×10^5 cells/ml. Cell aliquots were infected by the addition of HIV-1 (strain IIIB) diluted to give a viral multiplicity of infection of 100× TCID50. […]
A. For propidium iodide readout, 27 μl of 5% Nonidet40 was added to each well of the incubation plate. […] The plates were analyzed in an automated assay instrument (Screen Machine, Idexx Laboratories). […]
B. For MTS readout, 20 μl CellTiter 96 AQ One Solution reagent (Promega #G3582) was added to each well. At 75 minutes following the addition of MTS reagent, absobance was read at 492 nm using a Tecan Sunrise 96-well plate reader. […]
For each assay plate, the results (relative fluorescence units, rfU, or OD values) of wells containing uninfected cells or infected cells with no compound were averaged, respectively. […]

As a reminder, the IC50 is the concentration at which inhibition is half-maximal. A high value points to a need for much substance.

`Cc1cn([C@H]2C[C@H](N=[N+]=[N-])[C@@H](CO)O2)c(=O)[nH]c1=O` [3′-azido-3′-deoxythymidine] had a half-maximal inhibitory concentration (IC50) of 40 to 120 nM.
